Results as given in ChEMBL document CHEMBL5726493, “Compositions and methods of modulating short-chain dehydrogenase activity” (2017).

Target: T1, 15-hydroxyprostaglandin dehydrogenase [NAD(+)] (Homo sapiens, UniProt P15428)
T1 sequence (P15428 whole entry): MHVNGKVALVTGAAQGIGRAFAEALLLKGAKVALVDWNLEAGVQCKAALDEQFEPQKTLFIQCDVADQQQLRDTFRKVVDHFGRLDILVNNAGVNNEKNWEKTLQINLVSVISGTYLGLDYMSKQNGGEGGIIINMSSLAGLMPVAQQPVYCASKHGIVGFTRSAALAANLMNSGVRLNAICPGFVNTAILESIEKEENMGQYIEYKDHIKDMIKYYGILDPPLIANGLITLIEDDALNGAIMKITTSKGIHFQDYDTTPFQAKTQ
Assay: In Vitro Assay: Each compound for inhibiting enzymatic activity of recombinant 15-PGDH in an in vitro assay.

| IC50 [nM] | SMILES |
| --- | --- |
| 20.2 | CCCC[S+]([O-])c1sc2nc(-c3nccs3)cc(-c3cccc(C(=O)O)c3)c2c1N (configuration not stated) |
| 19.3 | CCCC[S+]([O-])c1sc2nc(-c3nccs3)cc(-c3cccc(C(=O)NCCN(C)C)c3)c2c1N (configuration not stated) |
| 36.4 | CCCC[S+]([O-])c1sc2nc(-c3nccs3)cc(-c3cccc(C(=O)N4CCN(C)CC4)c3)c2c1N (configuration not stated) |
| 2.5 | C=CCNC(=O)c1cccc(-c2cc(-c3nccs3)nc3sc([S+]([O-])CCCC)c(N)c23)c1 (configuration not stated) |
| 5.7 | CCCC[S+]([O-])c1sc2nc(-c3nccs3)cc(-c3ccc(CN(C)C)cc3)c2c1N (configuration not stated) |
| 8.53 | CCCC[S+]([O-])c1sc2nc(-c3nccs3)cc(-c3ccc(OCC(=O)OC)cc3)c2c1N (configuration not stated) |
| 2.71 | CCCC[S+]([O-])c1sc2nc(-c3nccs3)cc(-c3ccc(OCC(=O)O)cc3)c2c1N (configuration not stated) |
